Measurements published in ChEMBL document CHEMBL3421602, “Small molecule discoidin domain receptor kinase inhibitors and potential medical applications” (J Med Chem, 2015).
Numbered stars: 1 amine (or outer) side, 2 acyl side, 3 side chain; on linkers, the order of the positions; unused ones are H or OH. Bridge positions count the residues as written; N and C are the ends. Square brackets hold non-standard residues; d marks the D form. Peptide text beside a SMILES is read from it. I, II: the chains in the order shown. Actinocin(9to1) = Cc1c2oc3c(C)ccc(C(=O)[*:1])c3nc-2c(C(=O)[*:2])c(N)c1=O; NMeV = CN[C@H](C(=O)O)C(C)C; Sar = CNCC(=O)O

Tests used:
[1] = molecular target: T1, Discoidin domain-containing receptor 2 (Homo sapiens, UniProt Q16832); assay: Inhibition of recombinant non-activated DDR2 tyrosine kinase domain (unknown origin) using histone H2B peptide substrate and [32P]ATP incubated for 15 mins
T1 sequence (Q16832 whole entry): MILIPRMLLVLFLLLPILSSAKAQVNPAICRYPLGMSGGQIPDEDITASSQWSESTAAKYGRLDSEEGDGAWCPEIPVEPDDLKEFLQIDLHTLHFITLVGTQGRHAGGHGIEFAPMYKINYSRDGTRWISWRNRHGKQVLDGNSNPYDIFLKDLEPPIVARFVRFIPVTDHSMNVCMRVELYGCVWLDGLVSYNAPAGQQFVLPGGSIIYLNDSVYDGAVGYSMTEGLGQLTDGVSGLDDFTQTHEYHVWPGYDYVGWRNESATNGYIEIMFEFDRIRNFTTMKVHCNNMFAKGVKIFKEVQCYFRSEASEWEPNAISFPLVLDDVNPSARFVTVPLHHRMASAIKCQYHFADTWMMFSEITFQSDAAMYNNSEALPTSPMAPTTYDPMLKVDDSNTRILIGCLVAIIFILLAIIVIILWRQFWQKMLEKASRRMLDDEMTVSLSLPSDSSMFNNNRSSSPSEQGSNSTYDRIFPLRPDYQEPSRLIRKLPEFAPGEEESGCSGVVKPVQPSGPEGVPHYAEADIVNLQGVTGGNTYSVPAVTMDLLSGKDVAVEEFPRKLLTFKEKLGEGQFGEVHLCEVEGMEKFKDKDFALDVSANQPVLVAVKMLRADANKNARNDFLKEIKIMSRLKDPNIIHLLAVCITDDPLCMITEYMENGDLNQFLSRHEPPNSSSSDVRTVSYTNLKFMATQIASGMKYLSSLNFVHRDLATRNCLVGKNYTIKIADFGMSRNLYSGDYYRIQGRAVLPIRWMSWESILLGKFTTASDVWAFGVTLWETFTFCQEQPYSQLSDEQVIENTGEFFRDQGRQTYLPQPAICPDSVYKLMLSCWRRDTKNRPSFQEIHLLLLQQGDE

[2] = molecular target: T1, Discoidin domain-containing receptor 2; assay: Inhibition of recombinant activated DDR2 tyrosine kinase domain (unknown origin) using histone H2B peptide substrate and [32P]ATP incubated for 15 mins
[3] = molecular target: T1, Discoidin domain-containing receptor 2; assay: Binding affinity to DDR2 (unknown origin) by active-site dependent competition binding assay
[4] = molecular target: T2, Epithelial discoidin domain-containing receptor 1 (Homo sapiens, UniProt Q08345); assay: Inhibition of human DDR1 in doxycycline-stimulated human U2OS cells assessed as inhibition of collagen-1-induced autophosphorylation incubated for 1 hr; type: cell-based
T2 sequence (Q08345 whole entry, the tested form may be a part): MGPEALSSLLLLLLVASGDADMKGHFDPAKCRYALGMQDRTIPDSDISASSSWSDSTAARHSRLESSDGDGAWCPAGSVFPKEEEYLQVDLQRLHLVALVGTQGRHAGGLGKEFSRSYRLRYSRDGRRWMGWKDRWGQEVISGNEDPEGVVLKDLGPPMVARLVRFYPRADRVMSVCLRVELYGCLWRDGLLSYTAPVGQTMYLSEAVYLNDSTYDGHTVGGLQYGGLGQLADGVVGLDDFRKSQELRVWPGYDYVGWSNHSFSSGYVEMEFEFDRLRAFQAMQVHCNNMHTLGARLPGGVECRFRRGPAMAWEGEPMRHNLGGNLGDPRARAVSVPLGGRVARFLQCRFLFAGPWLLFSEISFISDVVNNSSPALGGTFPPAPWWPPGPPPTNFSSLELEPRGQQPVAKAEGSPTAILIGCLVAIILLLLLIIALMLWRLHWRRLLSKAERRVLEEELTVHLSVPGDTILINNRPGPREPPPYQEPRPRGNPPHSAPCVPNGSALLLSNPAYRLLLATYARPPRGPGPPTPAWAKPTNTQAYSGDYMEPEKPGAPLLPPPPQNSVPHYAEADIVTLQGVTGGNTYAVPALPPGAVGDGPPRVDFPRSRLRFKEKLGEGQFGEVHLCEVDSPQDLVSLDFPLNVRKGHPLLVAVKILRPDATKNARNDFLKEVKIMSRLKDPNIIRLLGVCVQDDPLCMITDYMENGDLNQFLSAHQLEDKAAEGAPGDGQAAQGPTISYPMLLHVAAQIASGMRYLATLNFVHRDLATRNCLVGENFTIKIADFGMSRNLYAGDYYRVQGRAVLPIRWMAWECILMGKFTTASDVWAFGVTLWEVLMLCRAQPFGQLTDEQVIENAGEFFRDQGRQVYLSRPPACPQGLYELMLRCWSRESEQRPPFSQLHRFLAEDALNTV

[5] = molecular target: T2, Epithelial discoidin domain-containing receptor 1; assay: Inhibition of human DDR1 kinase domain (601 to 913 residues) expressed in Sf9 cells by enzymatic kinase assay
U2OS = assay: Inhibition of cell proliferation of human U2OS cells over-expressing DDR1
[6] = molecular target: T1, Discoidin domain-containing receptor 2; assay: Inhibition of human DDR2 expressed in HEK293 cells assessed as reduction in collagen-1-induced DDR2 tyrosine phosphorylation pre-incubated for 30 mins by immunoblotting method; type: cell-based
[7] = molecular target: T1, Discoidin domain-containing receptor 2; assay: Inhibition of human DDR2 expressed in HEK293 cells assessed as reduction in collagen-2-induced DDR2 phosphorylation; type: cell-based

Work on `Oc1cccc(Nc2ccnc3cc(-c4cccc(CN5CCOCC5)c4)sc23)c1` yielded an IC50 [1] of 145 nM and an IC50 [2] of 6 nM.
With `CCc1ccc(C(=O)Nc2cc(CN3CCN(C)CC3)cc(C(F)(F)F)c2)cc1C#Cc1cnc2ccnn2c1` the Kd [3] was 0.6 nM.
`CCN1CCN(Cc2ccc(C(=O)Nc3ccc(C)c(NCc4cnc5[nH]ccc5c4OC)c3)cc2C(F)(F)F)CC1` was tested, and the IC50 [4] was 9 nM and the IC50 [5] was 47 nM.
With `CCS(=O)(=O)c1ccc(Cl)cc1CNC(=O)c1ccc(CN2CCN(C)CC2)c(C(F)(F)F)c1` the IC50 (U2OS) was 440 nM.
In the case of `Cc1c2oc3c(C)ccc(C(=O)N[C@@H]4C(=O)N[C@H](C(C)C)C(=O)N5CCC[C@H]5C(=O)N(C)CC(=O)N(C)[C@@H](C(C)C)C(=O)O[C@@H]4C)c3nc-2c(C(=O)N[C@@H]2C(=O)N[C@H](C(C)C)C(=O)N3CCC[C@H]3C(=O)N(C)CC(=O)N(C)[C@@H](C(C)C)C(=O)O[C@@H]2C)c(N)c1=O` [DACTINOMYCIN] (I: T[dV]P[Sar][NMeV] / II: T[dV]P[Sar][NMeV]; ester I:1-I:C, II:1-II:C; linker I:N-II:N via Actinocin(9to1)), the IC50 [6] is reported as 9 µM.
`Cn1cc(C(F)(F)F)cc(NC(=O)NCc2ccc(Oc3ccnc4c3CNC(=O)N4)cc2)c1=O` was tested, and the IC50 [7] was 15 nM.
`CNC(=O)c1cc(Oc2ccc(CNC(=O)Nc3cc(Cl)ccc3OC)cc2C)ccn1` gave an IC50 [7] of 30 nM.
